Columns and labels:
[1] = test system: HeLa; experiment: Cell proliferation assay (cell-titer blue); type: cell-based; conditions: for IC50: cell viability, cell-titer blue, up to 48 hours
Protocol: (§1) HeLa, MCF-7, HCT-116, and CEM-C7 were obtained from the American Type Culture Collection (Manassas, Va., USA). All adherent cell lines were maintained in Dulbecco's modified Eagle's medium (Mediatech) with 100 U/ml penicillin (Invitrogen), 100 μg/ml streptomycin (Invitrogen), 0.25 μg/ml amphotericin B (Invitrogen), and 10% fetal bovine serum (USA Scientific) and incubated at 37° C. with 5% CO2. CEM cells were maintained in RPMI-1640 media supplemented with 100 U/ml penicillin, 100 μg/ml streptomycin, 0.25 μg/ml amphotericin B, and 10% fetal bovine serum and incubated at 37° C. with […].
(§2) Cells were plated at a density of 7,000-13,000/well in 200 μl of media overnight in a 96-well plate. Each (phosphine)gold(I)-indole was added to wells in a dose-dependent manner (0.01-100 μM). Cells were treated with compounds for variable time periods (8-48 hours). With adherent cell lines, medium was removed from the wells and then 100 μl of fresh medium was added into each well followed by the addition of 20 μl of cell titer-blue reagent (Promega). Cells were incubated with reagent for 1-4 hrs and the optical density of samples was read at 560 nm using a microplate reader. The background absorbance of dye with media was subtracted from each sample. Cell viability was then normalized against cells treated with DMSO. IC50 values were obtained using a fit of the data to Equation 1: Y=100%/[1+(IC50/Inhibitor)] (1)
(§3) where y is the fraction of viable cells, IC50 is the concentration of inhibitor that inhibits 50% cell growth, and Inhibitor is the concentration of compound tested.
(§4) The cellular effects of these (phosphine)gold(I) indoles were tested against several cancer cell lines including HeLa (cervical cancer), MCF-7 (breast cancer), HCT-116 (colon cancer), and CEM-C7 (leukemia). The dose-dependency of each modified indole on cell viability was assessed using a cell-titer blue assay as previously described. In these experiments, cells were exposed to variable concentrations of each (phosphine)gold(I) indole (0.01-100 μM) for up to 48 hours and then assessed for viability.

[2] = test system: CEM-C7; experiment: Cell proliferation / cytotoxicity assay; type: cell-based; conditions: for IC50: cell viability, cell-titer blue, up to 48 hours
Protocol: as §1, §2, §3, §4
Defining this mechanism of cell death is important as necrosis can cause various side-effects including septic shock and kidney failure that can obviously compromise patient health.

[3] = molecular target: BSA (Bos taurus, UniProt P02769); experiment: Reactivity of Au(I)-compounds with BSA thiol (DTNB -SH titer); set-up: species or system bovine; conditions: 120 μM compound, Au(I)/BSA ratios up to 4:1, one hour, 37° C., PBS
Protocol: PBS was used as the reaction buffer.
We tested the ability of various Au(I)-complexes to non-selectively react with BSA. […] P2 resin was effective in retaining Au(I)-containing compounds including compound 3 and compound 4. However, BSA was not retained in the resin as >95% of the BSA loaded into the Penefsky column is recovered in the eluant. […] Values obtained from reactions containing BSA incubated with the various Au(I) complexes were compared to identical reactions containing BSA alone and eluted through Penefsky columns.

[4] = test system: HCT-116; experiment: Cell proliferation assay (cell-titer blue); type: cell-based; conditions: cell viability, up to 48 hours, read-out: IC50 HCT116
Protocol: as §1, §2, §3, §4

[5] = test system: MCF-7; experiment: Cell proliferation assay (cell-titer blue); type: cell-based; conditions: cell viability, up to 48 hours
Protocol: as §1, §2, §3, §4

[6] = test system: HeLa cells; conditions: HeLa, data not shown
Protocol: HeLa cells were plated at a density of 250,000-300,000 cells/mL. After 24 hr cells, the cells were irradiated in a dose dependent manner (0-4 Gy) using a ^137Cs gamma source. After treatment, the cells were trypsinized and plated at a density between 300-4000 cells in 60 mm dishes. Cells were allowed to grow colonies (1 colony≧50 cells) for 10-14 days, stained with 0.25% crystal violet, and manually counted to measure the number of colonies. Survival fractions were normalized against positive controls (colony formation with no radiation) and plotted as the log percent survival versus dose of radiation. Each experiment was performed an average of four (4) times with cells propagated on several different days.
In this case, we measured the effects of combining these (phosphine)gold(I) indoles with ionizing radiation (IR), a widely used therapy used to treat solid tumors. […] After this time frame, media containing the (phosphine)gold(I) indole was removed and replaced with fresh media. The cells were then irradiated in a dose-dependent fashion from 0 to 6 Gy. Cell viability was assessed using a clonogenic assay that measures colony formation and thus accurately defines the cytotoxic effects of IR exposure. […] The initial linear phase is particularly important as this reflects repair of non-lethal damage inflicted by clinically-relevant doses of IR (˜2 Gy).

Sequence of BSA (P02769 25-607): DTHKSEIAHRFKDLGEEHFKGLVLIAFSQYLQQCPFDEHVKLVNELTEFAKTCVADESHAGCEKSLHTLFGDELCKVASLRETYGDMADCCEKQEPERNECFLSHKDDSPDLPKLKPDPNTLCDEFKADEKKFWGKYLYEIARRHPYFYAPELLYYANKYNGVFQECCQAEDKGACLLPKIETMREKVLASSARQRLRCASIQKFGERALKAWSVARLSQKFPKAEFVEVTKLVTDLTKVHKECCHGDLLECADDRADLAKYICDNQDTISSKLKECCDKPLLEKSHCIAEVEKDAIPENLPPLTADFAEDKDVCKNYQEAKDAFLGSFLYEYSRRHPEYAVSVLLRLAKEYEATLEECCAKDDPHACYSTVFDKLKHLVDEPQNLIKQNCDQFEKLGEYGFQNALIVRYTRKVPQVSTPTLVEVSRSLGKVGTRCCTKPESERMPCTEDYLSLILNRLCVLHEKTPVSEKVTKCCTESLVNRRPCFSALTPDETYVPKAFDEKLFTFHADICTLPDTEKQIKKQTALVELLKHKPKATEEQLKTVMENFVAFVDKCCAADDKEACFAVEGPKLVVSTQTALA

| SMILES | anti-cancer (cytostatic or cytotoxic) effects ([1]; up to the highest concentration of 100 μM) | mechanism of cell death (propidium iodide uptake) ([2]; CEM-C7 cells) | LD50 ([2]; cytotoxic effect, leukemia cell line CEM-C7) | reactivity with BSA (relative thiol content, -SH titer) [3] | IC50 [4] | IC50 [1] | IC50 [5] | IC50 [2] | enhancement of the cell killing effects of IR [6] |
| --- | --- | --- | --- | --- | --- | --- | --- | --- | --- |
| [Au+].[Br-].c1ccc(P(c2ccccc2)c2ccccc2)cc1 [BrAuPPh3, reference compound] | does not produce significant cytostatic or cytotoxic effects | causes necrosis | 0.22 ± 0.05 µM | facile interactions |  |  |  |  |  |
| CC(C)(C)OC(=O)n1ccc2c[c]([Au-][P+](c3ccccc3-c3ccccc3)(C3CCCCC3)C3CCCCC3)ccc21 [Compound 5, 5-{[1,1′-biphenyl]-2-yldicyclohexylphosphine aurate(I)}-tert-butyl H-indole-1-carboxylate] |  |  |  |  | 3400 nM | 2400 nM | 2300 nM | 2100 nM |  |
| CC(C)(C)C(=O)OCn1ccc2c[c]([Au-][P+](c3ccccc3-c3ccccc3)(C3CCCCC3)C3CCCCC3)ccc21 [Compound 6, 5-{[1,1′-biphenyl]-2-yldicyclohexylphosphine aurate(I)}-(1H-indol-1-yl)methyl pivalate] |  |  |  |  | 1800 nM | 660 nM | 960 nM | 420 nM | do not enhance the cell killing effects of IR |
| Cn1ccc2c[c]([Au-][P+](c3ccccc3-c3ccccc3)(C3CCCCC3)C3CCCCC3)ccc21 [Compound 7, 5-{[1,1′-biphenyl]-2-yldicyclohexylphosphine aurate(I)}-1-methyl-1H-indole] |  |  |  |  | 380 nM | 460 nM | 3250 nM | 1430 nM | do not enhance the cell killing effects of IR |

From patent US9821173B2, “Anti-cancer agents and methods of use” (Case Western Reserve University, priority 2013, dated 2017)
